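Cultured in 96-well plates, cells were exposed to test compound for 48 hours across five concentrations. At the TGI there is no net growth.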
Assays:
Test in all cases: NCI tumour cell line growth inhibition, 48 h
MCF7 breast = tested on: MCF7 breast
UACC-257 melanoma = tested on: UACC-257 melanoma
HOP-18 NSCLC = tested on: HOP-18 NSCLC
SN12K1 renal = tested on: SN12K1 renal
DMS 114 small cell lung = tested on: DMS 114 small cell lung
P388/ADR leukemia = tested on: P388/ADR leukemia
P388 leukemia = tested on: P388 leukemia
MDA-N = tested on: MDA-N
DU-145 prostate = tested on: DU-145 prostate
HOP-92 NSCLC = tested on: HOP-92 NSCLC
RXF-631 renal = tested on: RXF-631 renal
786-0 renal = tested on: 786-0 renal

Structure (SMILES) | TGI (MCF7 breast) [µM] | TGI (UACC-257 melanoma) [µM] | TGI (HOP-18 NSCLC) [µM] | TGI (SN12K1 renal) [µM] | TGI (DMS 114 small cell lung) [µM] | TGI (P388/ADR leukemia) [µM] | TGI (P388 leukemia) [µM] | TGI (MDA-N) [µM] | TGI (DU-145 prostate) [µM] | TGI (HOP-92 NSCLC) [µM] | TGI (RXF-631 renal) [µM] | TGI (786-0 renal) [µM]
Cc1ccc(C2COc3cc(O)c(O)cc3C2)cc1 (stereo not given) | 114 | 69.6 | 98.2 | 75 | 37 | 750 | 750 |  |  |  |  | 
CO/N=C\c1cc(O)c(O)c(/C=N/OC)c1 | 94.8 | > 100 |  |  |  |  |  | > 100 | > 100 | > 100 |  | 
O=C(c1ccccc1)c1nc2ccc(Cl)cc2c2c1CCCO2 |  |  | > 100 |  | > 100 |  |  |  |  |  |  | 
Cc1nc2[nH]ncn2c(=O)c1CCCl | > 10 |  |  |  |  |  |  | > 10 | > 10 |  |  | 
OCc1cc2ccncc2c2c1[nH]c1ccccc12 |  | 51.3 | 27.4 |  | 23.1 |  |  |  |  | 82.5 |  | 
COc1cc(C(=O)CC2OC(=O)C(Cl)=C2Cl)ccc1Cl (stereo not given) |  | > 100 | > 100 |  | > 100 |  |  |  |  | > 100 | > 100 | 
O=C(c1ccccc1)C1C(c2ccccc2)N1S(=O)(=O)c1ccccc1 (stereo not given) | > 100 |  |  |  |  |  |  | > 100 | > 100 |  |  | 
C[C@]12CC[C@@H]3c4ccc(O)cc4CC[C@H]3[C@@H]1CC[C@@H]2OC(=O)CCc1ccccc1 | 37.7 | 35.2 |  |  |  |  |  | 52.9 | 43 | 36.8 |  | > 100
